The term viability denotes a read-out of living cells in per cent, often relative to untreated cells. A low value points to a greater loss of cells.

Read-outs that look alike come from different tables or passages of the source.

For data set [1], the system named is HEK295 cells. Conditions: for Main test: maximum Euclidian distance: NIR, plateau value of curve fit. From the text:
The subject of the investigation was: • HEK295 cells, provided by Microbify, in a concentration of 2.2*10^5 cells/ml in medium, grown confluently, i.e. adherently grown cells that have formed a continuous monolayer/cell layer, in the NIR measuring vessels with transflectance stamp made of stainless steel from BrukerOptics • Use of nutrient medium DMEM (Dulbecco's Modified Eagle's Medium), with high glucose content, HEPES buffer, without phenol red indicator. Medium was purchased ready-to-use from ThermoFisher, catalog number 21063045, and mixed with 10% fetal calf serum (v/v) and 1% penicillin-streptomycin solution (v/v). • Cell culture for 48 hours before measurement directly in the measuring vessel • Addition of several concentrations of ethanol: 0% (control), 3%, 6% (each v/v). […] Before the experiment began, the cells were confluent, i.e. 100% viable • Measurement of cell changes via NIR over a period of […]
The measuring instrument used was a near-infrared spectroscopy device microPHAZIR GP (Thermo Fisher Scientific Inc.) with a wave number range: 6266 cm^−1 to 4172 cm^−1
Data pretreatment of the NIR spectra: No special pretreatment was carried out, spectra were processed directly.
The following calculation parameters were chosen: Euclidean distance
The cells were removed from the incubator and treated with a chemical stress factor (ethanol) at the concentrations mentioned. Three independent replicates were prepared with 0%, 3% and 6% ethanol and in a narrow measured at intervals of time (every 2 minutes) over a total period of 6 hours via NIR.
From the measured spectra, the Euclidean distances were calculated according to the method of the invention, averaged per measurement time and the fitting of kinetic curves (cf. Application example 3; identical procedure). […] The data points are the mean values of 3 independent replicates, each measured 3 times, thus there are 9 measurement points per point. The error bars are the standard error of the mean. Also shown are the determination points for Km (time at which 50% of the plateau value was reached), K90 (time at which 90% of the plateau value was reached), and K95 (time at which 95% of the plateau value was reached).

A short description of data set [2]: in vitro. To be noted: human, HEK295 cells.

For `CCO` [ethanol], the “Km (time at which 50% of the plateau value was reached)” value in data set [1] (3% EtOH) was ~ 13 min. For the same compound, the “Main test: maximum Euclidian distance” value in data set [1] (3% ethanol (v/v)) was 0.194. The “Km (time at which 50% of the plateau value was reached)” value in data set [1] (6% EtOH) is reported as ~ 11 min. Besides, in data set [1] (6% ethanol (v/v)), the “Main test: maximum Euclidian distance” value is on record as 0.272. Moreover, in data set [2], the viability at 2.5 % ethanol was 68%, the viability at 3 % ethanol amounted to 70.8%, the viability at 5 % ethanol amounted to 65.5% and the viability at 6 % ethanol came out at 41.4%. Moreover, in data set [2], the viability at 7.5 % ethanol worked out at 22.5% and the viability at 10 % ethanol is 0%.

(Values after patent US12712053B2, “Determining the stability of a substance or substance mixture” (BIONORICA SE, priority 2022, dated 2026).)
